Reference: patent US20150050388A1, “SYNBIOTIC FOOD COMPOSITION CONTAINING TAGATOSE AND PROBIOTIC LACTIC ACID BACTERIA” (CJ CHEILJEDANG CORPORATION, priority 2012, published 2015)

What was measured:
[1] = tested on: L. casei DN114001; test: Capacity of using tagatose: live cell count after culture in minimal medium with added sugar; type: cell-based, Lactobacillus casei
Procedure: (§1) Pure culture solutions (1% culture solution in a stationary-phase in which a cell count of each of the strains is about 10^8 to 10^9 cfu/ml) of a total of 385 lactic acid bacteria strains were inoculated in selective media, respectively, and cultured in an incubator at 37° C. for 18 hours, followed by sub-culturing three times. Then, experiments proceeded at a state in which viability of the strain was optimal.
(§2) In order to evaluate the capacity of using tagatose of each of the lactic acid bacteria, a minimal medium composed of 5 g of peptone, 2.5 g of sodium acetate trihydrate, 0.5 ml of magnesium sulfate heptahydrate, 0.5 ml of manganese sulfate tetrahydrate, 5 ml of Tween 80, 1 g of diammonium citrate, 1 g of dipotassium phosphate, and 480 ml of distilled water was used.
(§3) After the medium was sterilized at 121° C. for 15 minutes and divided into three samples, 20 ml of 50% tagatose solution, 20 ml of 50% glucose solution, and 20 ml of 50% fructooligosaccharide solution (FOS) were added to each of the three samples, thereby preparing liquid media.
(§4) 1% of each of the lactic acid bacteria strains cultured as described above was inoculated in the prepared medium and cultured in an incubator at 37° C. for 24 hours. Thereafter, absorbance of each of the cultured strains was measured using an ELISA reader, and a cell count was measured through plate culture using a dilution solution, thereby evaluating the capacity of using tagatose.

[2] = tested on: L. casei Shirota; test: as above; type: cell-based, Lactobacillus casei
Procedure: as §1, §2, §3, §4

[3] = tested on: L. casei-01®; test: as above; type: cell-based, Lactobacillus casei
Procedure: as §1, §2, §3, §4

[4] = tested on: L. casei; test: as above; type: cell-based, Lactobacillus casei; settings: for Log10 Value of Live Cell Count: 24h, 37° C., minimal medium with the named sugar; for Tagatose/Glucose: ratio of 24h log10 live cell counts
Procedure: as §1, §2, §3, §4

[5] = tested on: L. rhamnosus GG; test: as above; type: cell-based, Lactobacillus rhamnosus; settings: for Log10 Value of Live Cell Count: 24h, 37° C., minimal medium with the named sugar; for Tagatose/Glucose: ratio of 24h log10 live cell counts
Procedure: as §1, §2, §3, §4

[6] = tested on: L. rhamnosus; test: as above; type: cell-based, Lactobacillus rhamnosus; settings: for Log10 Value of Live Cell Count: 24h, 37° C., minimal medium with the named sugar; for Tagatose/Glucose: ratio of 24h log10 live cell counts
Procedure: as §1, §2, §3, §4

[7] = tested on: P. pentosaceus; test: as above; type: cell-based, Pediococcus pentosaceus; settings: for Log10 Value of Live Cell Count: 24h, 37° C., minimal medium with the named sugar; for Tagatose/Glucose: ratio of 24h log10 live cell counts
Procedure: as §1, §2, §3, §4

[8] = tested on: L. farciminis; test: as above; type: cell-based, Lactobacillus farciminis; settings: strain 18 (L. farciminis)
Procedure: as §1
as §2, with “used. […]” for “used.”
as §4

[9] = tested on: L. acidophilus; test: as above; type: cell-based, Lactobacillus acidophilus; settings: strain 19 (L. acidophilus)
Procedure: as §1
as §2, with “used. […]” for “used.”
as §4

[10] = tested on: lactic acid bacteria strains efficiently using tagatose; test: Growth curves of lactic acid bacteria on other prebiotics (Example 3); type: cell-based; settings: 9 strains, 37° C., live cell count at 0, 5, 10, 24 and 48 hours
Procedure: Capacity of using other prebiotics except for tagatose was evaluated, compared and analyzed using 9 strains having excellent capacity of using tagatose among the 19 strains identified in Example 2.
For the present evaluation, at the time of preparing the medium used in Example 1, as a positive control group, glucose was used except for tagatose, and as negative control groups, fructooligosaccharide, lactitol, lactulose, and xylitol were used.
Each of the Lactobacillus casei (FIG. 1), Lactobacillus casei Shirota (FIG. 2), Lactobacillus casei DN114001 (FIG. 3), Lactobacillus casei-01® (FIG. 4), Lactobacillus rhamnosus (FIG. 5), Lactobacillus rhamnosus GG (FIG. 6), Pediococcus pentosaceus (FIG. 7), Lactobacillus farciminis (FIG. 8), and Lactobacillus acidophilus (FIG. 9) that were identified in Example 2 was inoculated in each of the media and cultured at 37° C. for 0, 5, 10, 24, and 48 hours. Then, a live cell count thereof was measured, such that a growth curve of each of the strains was obtained.

[11] = 24h, 37° C., minimal medium with the named sugar
[12] = ratio of 24h log10 live cell counts

**Q.** Which results are given for `O=C(CO)[C@@H](O)[C@@H](O)[C@H](O)CO` [Tagatose, tagatose]?
**A.** capacity of using tagatose ([1]; L. casei DN114001, as compared to the other strains of Table 1): significantly excellent capacity of using tagatose; Log10 Value of Live Cell Count ([1]; strain 8 (L. casei DN114001), 24h, 37° C., minimal medium with the named sugar): 8.953; Tagatose/Glucose ([1]; strain 8 (L. casei DN114001), ratio of 24h log10 live cell counts): 101.7%; capacity of using tagatose ([2]; L. casei Shirota, as compared to the other strains of Table 1): significantly excellent capacity of using tagatose; Log10 Value of Live Cell Count ([2]; strain 7 (L. casei Shirota), 24h, 37° C., minimal medium with the named sugar): 9.054; Tagatose/Glucose ([2]; strain 7 (L. casei Shirota), ratio of 24h log10 live cell counts): 101.4%; capacity of using tagatose ([3]; L. casei-01, as compared to the other strains of Table 1): significantly excellent capacity of using tagatose; Log10 Value of Live Cell Count ([3]; strain 9 (L. casei-01®), 24h, 37° C., minimal medium with the named sugar): 9.068; Tagatose/Glucose ([3]; strain 9 (L. casei-01®), ratio of 24h log10 live cell counts): 101.4%; Log10 Value of Live Cell Count ([4]; strain 1 (L. casei)): 7.882; Tagatose/Glucose ([4]; strain 1 (L. casei)): 100.3%; Log10 Value of Live Cell Count ([4]; strain 2 (L. casei)): 8.137; Tagatose/Glucose ([4]; strain 2 (L. casei)): 100.1%; Log10 Value of Live Cell Count ([4]; strain 3 (L. casei)): 8.240; Tagatose/Glucose ([4]; strain 3 (L. casei)): 99.6%; Log10 Value of Live Cell Count ([4]; strain 4 (L. casei)): 8.424; Tagatose/Glucose ([4]; strain 4 (L. casei)): 99.0%; Log10 Value of Live Cell Count ([4]; strain 5 (L. casei)): 8.449; Tagatose/Glucose ([4]; strain 5 (L. casei)): 93.1%; Log10 Value of Live Cell Count ([4]; strain 6 (L. casei)): 8.767; Tagatose/Glucose ([4]; strain 6 (L. casei)): 98.8%; capacity of using tagatose ([5]; L. rhamnosus GG, as compared to the other strains of Table 1): significantly excellent capacity of using tagatose; Log10 Value of Live Cell Count ([5]; strain 14 (L. rhamnosus GG)): 8.548; Tagatose/Glucose ([5]; strain 14 (L. rhamnosus GG)): 105.0%; Log10 Value of Live Cell Count ([5]; strain 15 (L. rhamnosus GG)): 8.822; Tagatose/Glucose ([5]; strain 15 (L. rhamnosus GG)): 103.5%; Log10 Value of Live Cell Count ([6]; strain 10 (L. rhamnosus)): 7.939; Tagatose/Glucose ([6]; strain 10 (L. rhamnosus)): 98.5%; Log10 Value of Live Cell Count ([6]; strain 11 (L. rhamnosus)): 8.031; Tagatose/Glucose ([6]; strain 11 (L. rhamnosus)): 99.2%; Log10 Value of Live Cell Count ([6]; strain 12 (L. rhamnosus)): 8.059; Tagatose/Glucose ([6]; strain 12 (L. rhamnosus)): 98.5%; Log10 Value of Live Cell Count ([6]; strain 13 (L. rhamnosus)): 8.169; Tagatose/Glucose ([6]; strain 13 (L. rhamnosus)): 99.5%; Log10 Value of Live Cell Count ([7]; strain 16 (P. pentosaceus)): 8.798; Tagatose/Glucose ([7]; strain 16 (P. pentosaceus)): 99.1%; Log10 Value of Live Cell Count ([7]; strain 17 (P. pentosaceus)): 8.953; Tagatose/Glucose ([7]; strain 17 (P. pentosaceus)): 98.8%; Log10 Value of Live Cell Count [8, 11]: 8.601; Tagatose/Glucose [8, 12]: 99.2%; Log10 Value of Live Cell Count [9, 11]: 7.913; Tagatose/Glucose [9, 12]: 98.4%

**Q.** For `OC[C@@H](O)[C@@H](O[C@@H]1O[C@H](CO)[C@H](O)[C@H](O)[C@H]1O)[C@H](O)[C@@H](O)CO` [lactitol], which “capacity of using the sugar (comparison of growth curves)” value [10] is on record?
**A.** low
